# Test results published in patent US4332787A, “Assay for beta-adrenergic antagonists and antibody therefor” (The Massachusetts General Hospital, priority 1980, dated 1982).
# Where two headings read alike, the source gives them in different places.
# Tests used:
# [1] = tested on: antibody (antiacebutolol amine immune serum); experiment: Competitive binding inhibition of 3H-(-)-propranolol to anti-acebutolol amine antibody (radioimmunoassay); parameters: species or system rabbit; settings: for competitive inhibition of 3H-propranolol binding to the antibody: sera containing the drug
# Protocol: Acebutolol amine having the formula: [drawing 3] was covalently linked to lysozyme. 150 mg of acebutolol amine was dissolved in 1.0 N HCl and was cooled to 0° C. in a salt ice bath. To this solution was added 1 cc of 0.5 M NaNO2 also at 0° C. and the resultant mixture was allowed to stand at 0° C. for 10 min. A mixture of 200 mg crystalline lysozyme in 15% aqueous sodium carbonate at 0° C. was added to 2.0 cc of the above mixture. […] The resultant product was dialyzed against phosphate buffered saline and the purified conjugate was frozen in dry ice-acetone and stored at -20° C. The product then was thawed and centrifuged for 10 min at 3000 rpm. The supernatant was recovered and mixed with Tris buffer, pH 7 at a concentration of 30 mg/ml.
# Albino rabbits were immunized with this conjugate at monthly intervals for four months. Each rabbit received intracutaneous toepad injections of 0.5 mg of protein emulsified in complete Freund's adjuvant.
# (§1) The assays were performed in triplicate. […] For each determination, an identical volume of preimmune serum was assayed as a control for antibody binding. […] After an incubation period of 1 hr at 25° C., 100 μl of goat-antirabbit 1 gG antiserum was added to each tube with 50 μl of normal rabbit 1 gG as a carrier for the precipitation. The tubes were again incubated at 25° C. for 30 min. The precipitates were washed twice in Tris buffer and spun in a Sorvall table-top centrifuge at 2,000 rpm×10 min. After the supernatant was decanted, the precipitates were dissolved in 1 ml of 1% sodium dodecyl sulfate. Bound radioactivity was counted in the presence of 10 ml of Aquasol-2 (New England Nuclear) in a Packard Tricarb liquid scintillation counter with a counting efficiency of 40%.
# (§2) The assays to determine the competitive binding of potentially cross-reactive drugs were performed on sera obtained from patients on long-term maintenance with single drugs; digoxin, imipramine and alphamethyldopa, respectively.
# beta-adrenergic receptor = settings: metabolite of propranolol, result in words, cited from earlier work
# [2] = result in words, cited from earlier work
# clinical = settings: for half-life: human, in vivo, iv
# Protocol: as §1, §2
# To further document the reproducibility of the assay, each serum sample from a single subject was assayed in replicate fashion at dilutions of 1:2, 1:3 and 1:4 in pooled human serum.
# [3] = tested on: exercise heart rate (patients); experiment: Cardiovascular stress testing of patients on oral propranolol, serum propranolol concentration vs. heart rate and blood pressure; format: in vivo, human
# Protocol: The assays were performed in triplicate. […] The ^3 H-(-)-propranolol was obtained from New England Nuclear Corporation. […] The standard curve for the radioimmunoassay was derived from triplicate assay of pooled human serum containing varying amounts of added (±) propranolol HCl. For each determination, an identical volume of preimmune serum was assayed as a control for antibody binding. […] After an incubation period of 1 hr at 25° C., 100 μl of goat-antirabbit 1 gG antiserum was added to each tube with 50 μl of normal rabbit 1 gG as a carrier for the precipitation. The tubes were again incubated at 25° C. for 30 min. The precipitates were washed twice in Tris buffer and spun in a Sorvall table-top centrifuge at 2,000 rpm×10 min. After the supernatant was decanted, the precipitates were dissolved in 1 ml of 1% sodium dodecyl sulfate. Bound radioactivity was counted in the presence of 10 ml of Aquasol-2 (New England Nuclear) in a Packard Tricarb liquid scintillation counter with a counting efficiency of 40%.
# All subjects were submitted to standard, graded exercise according to the Bruce protocol, and 36 of 54 patients attained at least Stage II of exertion (greater than 6 min of sustained exertion).
smiles,measurement,setting,value
NCCc1ccc(O)c(O)c1 [dopamine],competitive inhibition of 3H-propranolol binding to the antibody,[1]; result in words,failed to produce significant competitive inhibition
NC[C@H](O)c1ccc(O)c(O)c1 [(-)-norepinephrine],competitive inhibition of 3H-propranolol binding to the antibody,[1]; result in words,failed to produce significant competitive inhibition
CC(=O)c1ccc(N)cc1OCC(O)CNC(C)C (stereo not drawn) [acebutolol amine],competitive binding inhibition curve compared with propranolol,"[1]; FIG. 1, result in words",yields a curve analogous to the displacement binding observed with propranolol
CC(C)NCC(O)COc1ccc(O)c2ccccc12 (stereo not drawn) [4-hydroxypropranolol],Kd,"[1]; 3H-(-)-propranolol displacement from antibody, read-out: apparent KD (competitive binding inhibition)",10 nM
same,biological activity at the beta-adrenergic receptor,beta-adrenergic receptor,equipotent beta adrenergic receptor antagonist
same,biological activity at the beta-adrenergic receptor,beta-adrenergic receptor; listed as 4 OH-propranolol,retains full biological activity
same,detectability of metabolite in serum,[2],detectable in serum only after the oral route of drug administration
CN(C)CCCN1c2ccccc2CCc2ccccc21 [imipramine],competitive inhibition of 3H-propranolol binding to the antibody,[1]; result in words,failed to produce significant competitive inhibition
C[C@H]1O[C@@H](O[C@H]2[C@@H](O)C[C@H](O[C@H]3[C@@H](O)C[C@H](O[C@H]4CC[C@@]5(C)[C@H](CC[C@@H]6[C@@H]5C[C@@H](O)[C@]5(C)[C@@H](C7=CC(=O)OC7)CC[C@]65O)C4)O[C@@H]3C)O[C@@H]2C)C[C@H](O)[C@@H]1O [digoxin],competitive inhibition of 3H-propranolol binding to the antibody,[1]; result in words,failed to produce significant competitive inhibition
C[C@](N)(Cc1ccc(O)c(O)c1)C(=O)O [alpha methyldopa],competitive inhibition of 3H-propranolol binding to the antibody,[1]; result in words,failed to produce significant competitive inhibition
CC(C)NCC(O)COc1cccc2ccccc12 (racemic) [propranolol],half-life,clinical; range of serum half-life observed in subjects,5 to 7.5 h
same,half-life,clinical; serum half-life,~7.5 h
same,time the drug remains detectable in serum,clinical; single intravenous administration,six to twelve
same,correlation between increases in blood pressure or heart rate and serum concentration,"[3]; 54 patients, exercise, result in words",lack of correlation
same,"relationship of basal heart rate to plasma concentration, response to exercise, or administered dose","[3]; 54 patients, long-term oral propranolol, result in words",failed to show any significant relationship
same,p of linear relationship between exercise response (percent of maximal predicted heart rate for age) and serum propranolol concentration,"[3]; FIG. 3, linear regression analysis",< 0.0005
same,average daily dose in adequately blocked patients,"[3]; adequately blocked patients, oral",2.45 ± 2.89 mg/kg/day
same,"p of difference in average daily dose, adequately vs. inadequately blocked patients","[3]; human, in vivo",< 0.001
same,average daily dose in inadequately blocked patients,"[3]; inadequately blocked patients, oral",1.14±0.62
same,patients who achieved an exercise response of <67% of predicted,[3]; serum level <250 ng/ml,3/33
same,patients with exercise response consistent with adequate beta-adrenergic blockade,[3]; serum level >250 ng/ml,10/16
same,correlation of serum propranolol and heart rate response to maximal exercise,"[3]; study of 56 patients, result in words",highly significant
same,conversion by the liver to 4 OH-propranolol,[2]; oral administration,a significant fraction of the administered dose is converted by the liver to 4 OH-propranolol
same,bio-availability,[2],markedly variable bio-availibility
